Test system: cancer cells
Experiment: Proteomics study (up- and downregulated proteins)
Type: cell-based
Details: for Hydroxymethylglutaryl-CoA synthase, cytoplasmic (HMGCS1) protein: proteomics
From the text: Proteomics provide a comprehensive understanding of mechanisms that are responsible for the cytotoxicity of anticancer drugs, and based on the expression of protein helps in identification of drug targets (see, Wang, Y.; et al., Met Based Drugs. 2008, 1-9). One of the disadvantages of proteomics is membrane-bound proteins due to their poor solubility and low abundance, are disproportionally represented in proteome profiles (see, Smith, C. Nature, 2004, 428, 225-231). Identification of target proteins utilizing proteomics technique coupled with mass spectrometry is an evolving technology platform that has the potential to identify novel proteins involved in key biological processes in cells. There are two mass spectrometry-based methods currently used for protein profiling. The use of high-resolution two-dimensional electrophoresis to separate proteins from different samples, followed by selection and staining of differentially expressed proteins to be identified by mass spectrometry is the more established method. In the second approach isotope coded affinity tag (ICAT) reagents are utilized to differentially label proteins from two different complex mixtures, that are then digested to yield labeled peptides. The labeled mixtures are then combined, the peptides separated by multidimensional liquid chromatography and analyzed by tandem mass spectrometry. In this method, complexity of the mixtures omitting the non-cysteine residues is reduced as here the cysteine residues of proteins get covalently attached to the ICAT reagent. Proteomics coupled with bioinformatics process the raw mass spectral data into protein data (see, Yu, L. R.; Essentials of Genomic and Personalized Medicine 2010, 89-96). The most critical software programs take peptide mapping and/or tandem MS results and determine the protein or peptide sequence that are most closely related to the experimental data. One of the more intriguing MS-based proteomic techniques is to identify the proteins which are overexpressed thus aids in identification of the target protein of the given drug. There are several examples reported in literature about successful application of Bru-seq and proteomics for identification of mechanism of action of drugs.
It is the second step in the mevalonate-dependent isoprenoid biosynthesis pathway. HMG-CoA is an intermediate in both cholesterol synthesis and ketogenesis. Thus, here the proteomics results are in accordance with the Bru-seq results, implying “cholesterol biosynthesis pathway” as key pathway activated by these series of compounds.
Among its related pathways are regulation of cholesterol biosynthesis by SREBP (SREBF) and terpenoid backbone biosynthesis.

[1] = protein: 28S ribosomal protein S16, mitochondrial, downregulated
[2] = protein: 28S ribosomal protein S17, mitochondrial, downregulated
[3] = protein: 28S ribosomal protein S18b, mitochondrial, downregulated
[4] = protein: 28S ribosomal protein S22, mitochondrial, downregulated
[5] = protein: 28S ribosomal protein S25, mitochondrial, downregulated
[6] = protein: 40S ribosomal protein S8, upregulated
[7] = protein: 40S ribosomal protein S26, upregulated
[8] = protein: 40S ribosomal protein S30, upregulated
[9] = protein: 60S ribosomal protein L19, upregulated
[10] = protein: 60S ribosomal protein L27a, upregulated
[11] = protein: 60S ribosomal protein L36a-like, upregulated
[12] = protein: 60S ribosomal protein L37, upregulated
[13] = protein: Aconitate hydratase, mitochondrial, downregulated
[14] = protein: Acyl-CoA desaturase, upregulated
[15] = protein: Alanine aminotransferase 2, upregulated
[16] = protein: Aldehyde dehydrogenase X, downregulated
[17] = protein: Apolipoprotein A-I, upregulated
[18] = protein: Apolipoprotein B-100, upregulated
[19] = protein: Apolipoprotein C-III, upregulated
[20] = protein: Beta-2-glycoprotein 1, upregulated
[21] = protein: Bleomycin hydrolase, upregulated
[22] = protein: Constitutive coactivator of peroxisome proliferator-activated receptor gamma, downregulated
[23] = protein: Copper-transporting ATPase 2, upregulated
[24] = protein: D-dopachrome decarboxylase, downregulated
[25] = protein: DNA topoisomerase 2-alpha, downregulated
[26] = protein: Deoxyribonuclease-2-alpha, upregulated
[27] = protein: Dermcidin, upregulated
[28] = protein: Diphthine methyltransferase, upregulated
[29] = protein: E3 ubiquitin-protein ligase TRIM69, upregulated
[30] = protein: Elongation factor G, mitochondrial, downregulated
[31] = protein: FAST kinase domain-containing protein 5, mitochondrial, downregulated
[32] = protein: Filamin-C, upregulated
[33] = protein: GH3 domain-containing protein, upregulated
[34] = protein: Histone H1.2, downregulated
[35] = protein: Hydroxymethylglutaryl-CoA synthase, cytoplasmic, upregulated
[36] = protein: Interleukin-36 beta, downregulated
[37] = protein: Iron-responsive element-binding protein 2, upregulated
[38] = protein: Keratin, type I cytoskeletal 20, downregulated
[39] = protein: Kinesin-like protein KIF27, upregulated
[40] = protein: LanC-like protein 2, downregulated
[41] = protein: MBT domain-containing protein 1, downregulated
[42] = protein: Mixed lineage kinase domain-like protein, upregulated
[43] = protein: Muellerian-inhibiting factor, upregulated
[44] = protein: NADH dehydrogenase [ubiquinone] 1 alpha subcomplex subunit 6, downregulated
[45] = protein: NADH dehydrogenase [ubiquinone] iron-sulfur protein 4, mitochondrial, downregulated
[46] = protein: NADH-ubiquinone oxidoreductase 75 kDa subunit, mitochondrial, downregulated
[47] = protein: Nucleolar transcription factor 1, downregulated
[48] = protein: Phosphatidylserine synthase 1, upregulated
[49] = protein: Proliferation marker protein Ki-67, downregulated
[50] = protein: Protein FAM83H, downregulated
[51] = protein: Protein FAM177A1, upregulated
[52] = protein: Protein PIMREG, upregulated
[53] = protein: Protein cornichon homolog 4, upregulated
[54] = protein: Putative ankyrin repeat domain-containing protein 31, upregulated
[55] = protein: RNA-binding motif protein, X chromosome, downregulated
[56] = protein: Scaffold attachment factor B1, downregulated
[57] = protein: Scaffold attachment factor B2, downregulated
[58] = protein: Sequestosome-1, upregulated
[59] = protein: Serine/threonine-protein kinase PLK4, upregulated
[60] = protein: Squalene synthase, upregulated
[61] = protein: Transcription elongation factor 1 homolog, downregulated

With `CCN(CC)CCCC(C)Nc1cnc(C(=O)Nc2cc(C)cc3cccnc23)cn1` (stereo not drawn) [J4, 5-((5-(diethylamino)pentan-2-yl)amino)-N-(6-methylquinolin-8-yl)pyrazine-2-carboxamide] the Abundance ratio [1] was 0.403, the “Abundance ratio (log2)” value [1] was −1.31 and the Abundance ratio [2] was 0.452. The “Abundance ratio (log2)” value [2] was −1.15, the Abundance ratio [3] was 0.337 and the “Abundance ratio (log2)” value [3] was −1.57. For the same compound, the Abundance ratio [4] was 0.432, the “Abundance ratio (log2)” value [4] was −1.21 and the Abundance ratio [5] was 0.402. The “Abundance ratio (log2)” value [5] was −1.32, the Abundance ratio [6] was 1.777 and the “Abundance ratio (log2)” value [6] was 0.83. The Abundance ratio [7] was 1.717, the “Abundance ratio (log2)” value [7] was 0.78 and the Abundance ratio [8] was 1.649. For the same compound, the “Abundance ratio (log2)” value [8] was 0.72, the Abundance ratio [9] was 1.761 and the “Abundance ratio (log2)” value [9] was 0.82. For the same compound, the Abundance ratio [10] was 1.713, the “Abundance ratio (log2)” value [10] was 0.78 and the Abundance ratio [11] was 1.623. The “Abundance ratio (log2)” value [11] was 0.7, the Abundance ratio [12] was 1.808 and the “Abundance ratio (log2)” value [12] was 0.85. For the same compound, the Abundance ratio [13] was 0.489, the “Abundance ratio (log2)” value [13] was −1.03 and the Abundance ratio [14] was 2.148. For the same compound, the “Abundance ratio (log2)” value [14] was 1.1, the Abundance ratio [15] was 1.616 and the “Abundance ratio (log2)” value [15] was 0.69. For the same compound, the Abundance ratio [16] was 0.278, the “Abundance ratio (log2)” value [16] was −1.85 and the Abundance ratio [17] was 1.891. The “Abundance ratio (log2)” value [17] was 0.92, the Abundance ratio [18] was 2.151 and the “Abundance ratio (log2)” value [18] was 1.1. The Abundance ratio [19] was 2.072, the “Abundance ratio (log2)” value [19] was 1.05 and the Abundance ratio [20] was 1.622. For the same compound, the “Abundance ratio (log2)” value [20] was 0.7, the Abundance ratio [21] was 1.845 and the “Abundance ratio (log2)” value [21] was 0.88. The Abundance ratio [22] was 0.419, the “Abundance ratio (log2)” value [22] was −1.25 and the Abundance ratio [23] was 1.807. The “Abundance ratio (log2)” value [23] was 0.85, the Abundance ratio [24] was 0.487 and the “Abundance ratio (log2)” value [24] was −1.04. The Abundance ratio [25] was 0.381, the “Abundance ratio (log2)” value [25] was −1.39 and the Abundance ratio [26] was 1.649. The “Abundance ratio (log2)” value [26] was 0.72, the Abundance ratio [27] was 2.454 and the “Abundance ratio (log2)” value [27] was 1.3. For the same compound, the Abundance ratio [28] was 1.633, the “Abundance ratio (log2)” value [28] was 0.71 and the Abundance ratio [29] was 1.906. The “Abundance ratio (log2)” value [29] was 0.93, the Abundance ratio [30] was 0.245 and the “Abundance ratio (log2)” value [30] was −2.03. The Abundance ratio [31] was 0.382, the “Abundance ratio (log2)” value [31] was −1.39 and the Abundance ratio [32] was 2.026. For the same compound, the “Abundance ratio (log2)” value [32] was 1.02, the Abundance ratio [33] was 1.742 and the “Abundance ratio (log2)” value [33] was 0.8. For the same compound, the Abundance ratio [34] was 0.462, the “Abundance ratio (log2)” value [34] was −1.11 and the Abundance ratio [35] was 1.944. The “Abundance ratio (log2)” value [35] was 0.96, the Abundance ratio [36] was 0.462 and the “Abundance ratio (log2)” value [36] was −1.12. The Abundance ratio [37] was 2.136, the “Abundance ratio (log2)” value [37] was 1.09 and the Abundance ratio [38] was 0.439. The “Abundance ratio (log2)” value [38] was −1.19, the Abundance ratio [39] was 1.89 and the “Abundance ratio (log2)” value [39] was 0.92. For the same compound, the Abundance ratio [40] was 0.327, the “Abundance ratio (log2)” value [40] was −1.61 and the Abundance ratio (protein: Lumican, upregulated) was 1.612. For the same compound, the “Abundance ratio (log2)” value (protein: Lumican, upregulated) was 0.69, the Abundance ratio [41] was 0.233 and the “Abundance ratio (log2)” value [41] was −2.1. For the same compound, the Abundance ratio [42] was 1.861, the “Abundance ratio (log2)” value [42] was 0.9 and the Abundance ratio [43] was 1.824. The “Abundance ratio (log2)” value [43] was 0.87, the Abundance ratio [44] was 0.473 and the “Abundance ratio (log2)” value [44] was −1.08. The Abundance ratio [45] was 0.468, the “Abundance ratio (log2)” value [45] was −1.1 and the Abundance ratio [46] was 0.488. For the same compound, the “Abundance ratio (log2)” value [46] was −1.03, the Abundance ratio [47] was 0.484 and the “Abundance ratio (log2)” value [47] was −1.05. The Abundance ratio [48] was 1.946, the “Abundance ratio (log2)” value [48] was 0.96 and the Abundance ratio [49] was 0.474. For the same compound, the “Abundance ratio (log2)” value [49] was −1.08, the Abundance ratio [50] was 0.46 and the “Abundance ratio (log2)” value [50] was −1.12. For the same compound, the Abundance ratio [51] was 3.085, the “Abundance ratio (log2)” value [51] was 1.63 and the Abundance ratio [52] was 1.711. The “Abundance ratio (log2)” value [52] was 0.77, the Abundance ratio [53] was 1.656 and the “Abundance ratio (log2)” value [53] was 0.73. The Abundance ratio [54] was 1.786, the “Abundance ratio (log2)” value [54] was 0.84 and the Abundance ratio [55] was 0.441. The “Abundance ratio (log2)” value [55] was −1.18, the Abundance ratio [56] was 0.401 and the “Abundance ratio (log2)” value [56] was −1.32. The Abundance ratio [57] was 0.405, the “Abundance ratio (log2)” value [57] was −1.3 and the Abundance ratio [58] was 1.69. For the same compound, the “Abundance ratio (log2)” value [58] was 0.76, the Abundance ratio [59] was 3.158 and the “Abundance ratio (log2)” value [59] was 1.66. The Abundance ratio [60] was 1.597, the “Abundance ratio (log2)” value [60] was 0.68 and the Abundance ratio [61] was 0.364. The “Abundance ratio (log2)” value [61] was −1.46, the “Hydroxymethylglutaryl-CoA synthase, cytoplasmic (HMGCS1) protein” value was “upregulation” and the “Hydroxymethylglutaryl-CoA synthase, cytoplasmic (HMGCS1) protein” value (listed as JR-1-235) was “upregulated”.
